Laboratory results reported in ChEMBL document CHEMBL5034014, “Melanocortin 1 Receptor Agonists Based on a Bivalent, Bicyclic Peptide Framework” (J Med Chem, 2021).

Columns and labels:
Homo sapiens [1] = organism: Homo sapiens; assay: Selectivity index, […] for displacement of [125I]-NDP-alpha-MSH from human MC1R […] for displacement of [125I]-NDP-alpha-MSH from human MC3R by competitive radioligand binding assay
[2] = target: T1, Melanocyte-stimulating hormone receptor (Homo sapiens, UniProt Q01726); assay: Displacement of [125I]-NDP-alpha-MSH from human MC1R expressed in HEK2936E cell membrane measured after 16-23 hrs by 1450 microbeta trilux scintillation proximity assay; type: cell membranes
T1 sequence (Q01726 whole entry): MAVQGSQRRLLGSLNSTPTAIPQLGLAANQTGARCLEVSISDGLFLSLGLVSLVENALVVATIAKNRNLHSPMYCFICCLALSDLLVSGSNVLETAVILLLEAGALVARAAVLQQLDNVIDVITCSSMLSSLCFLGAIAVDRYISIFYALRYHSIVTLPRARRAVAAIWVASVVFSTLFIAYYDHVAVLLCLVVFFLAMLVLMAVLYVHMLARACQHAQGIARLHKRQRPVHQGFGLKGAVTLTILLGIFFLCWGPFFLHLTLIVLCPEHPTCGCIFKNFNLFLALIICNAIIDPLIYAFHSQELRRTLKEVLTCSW

Melanocortin receptor 4 [3] = target: T2, Melanocortin receptor 4 (Homo sapiens, UniProt P32245); assay: Displacement of [125I]-NDP-alpha-MSH from human MC4R expressed in HEK2936E cell membrane measured after 16-23 hrs by 1450 microbeta trilux scintillation proximity assay; type: cell membranes
T2 sequence (P32245 whole entry): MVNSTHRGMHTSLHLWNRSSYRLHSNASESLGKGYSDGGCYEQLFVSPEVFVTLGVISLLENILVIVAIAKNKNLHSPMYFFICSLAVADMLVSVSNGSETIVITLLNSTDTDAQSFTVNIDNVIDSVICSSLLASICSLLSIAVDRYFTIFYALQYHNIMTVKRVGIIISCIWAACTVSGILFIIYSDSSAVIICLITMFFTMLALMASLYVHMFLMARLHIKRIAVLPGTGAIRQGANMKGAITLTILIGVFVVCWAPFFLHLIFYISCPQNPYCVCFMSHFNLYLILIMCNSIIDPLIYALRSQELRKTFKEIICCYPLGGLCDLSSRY

Melanocortin receptor 5 = Melanocortin receptor 5 (Homo sapiens, UniProt P33032); assay: Displacement of [125I]-NDP-alpha-MSH from human MC5R expressed in HEK2936E cell membrane measured after 16-23 hrs by 1450 microbeta trilux scintillation proximity assay; type: cell membranes
Sequence of Melanocortin receptor 5 (P33032 whole entry): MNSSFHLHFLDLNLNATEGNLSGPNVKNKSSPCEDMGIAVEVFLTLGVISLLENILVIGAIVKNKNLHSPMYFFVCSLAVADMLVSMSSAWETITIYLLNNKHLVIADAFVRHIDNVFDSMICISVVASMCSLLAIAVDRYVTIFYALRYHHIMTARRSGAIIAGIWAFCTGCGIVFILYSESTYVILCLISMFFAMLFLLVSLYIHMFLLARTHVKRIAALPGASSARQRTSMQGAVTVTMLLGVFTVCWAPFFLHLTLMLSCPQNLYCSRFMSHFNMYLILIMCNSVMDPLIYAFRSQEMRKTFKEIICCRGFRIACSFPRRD

Melanocortin receptor 3 [4] = target: T3, Melanocortin receptor 3 (Homo sapiens, UniProt P41968); assay: Agonist activity at human melanocortin receptor 3 expressed in human T-REx-293 cells assessed as stimulation of intracellular cAMP accumulation incubated for 45 mins by LANCE cAMP assay; type: functional, cell-based
T3 sequence (P41968 whole entry): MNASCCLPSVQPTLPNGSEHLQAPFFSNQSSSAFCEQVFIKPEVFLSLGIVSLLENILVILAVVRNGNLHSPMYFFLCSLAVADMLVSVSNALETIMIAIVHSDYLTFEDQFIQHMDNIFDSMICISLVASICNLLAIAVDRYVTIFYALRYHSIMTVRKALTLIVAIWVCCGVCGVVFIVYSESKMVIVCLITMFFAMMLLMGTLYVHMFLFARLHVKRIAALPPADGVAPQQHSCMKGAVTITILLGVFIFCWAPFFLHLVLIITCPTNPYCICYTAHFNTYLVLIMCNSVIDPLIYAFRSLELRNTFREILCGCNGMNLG

[5] = target: T1, Melanocyte-stimulating hormone receptor; assay: Agonist activity at human melanocortin receptor 1 expressed in human T-Rex-293 cells assessed as stimulation of intracellular cAMP accumulation incubated for 45 mins by LANCE cAMP assay; type: functional, cell-based
Melanocortin receptor 4 [6] = target: T2, Melanocortin receptor 4; assay: Agonist activity at human melanocortin receptor 4 expressed in human T-REx-293 cells using low doxycycline assessed as stimulation of intracellular cAMP accumulation incubated for 45 mins by LANCE cAMP assay; type: functional, cell-based
Homo sapiens [7] = organism: Homo sapiens; assay: Selectivity index, […] for displacement of [125I]-NDP-alpha-MSH from human MC1R […] for displacement of [125I]-NDP-alpha-MSH from human MC5R by competitive radioligand binding assay
Melanocortin receptor 3 [8] = target: T3, Melanocortin receptor 3; assay: Displacement of [125I]-NDP-alpha-MSH from human MC3R expressed in HEK2936E cell membrane measured after 16-23 hrs by 1450 microbeta trilux scintillation proximity assay; type: cell membranes
Homo sapiens [9] = organism: Homo sapiens; assay: Selectivity index, […] for displacement of [125I]-NDP-alpha-MSH from human MC1R […] for displacement of [125I]-NDP-alpha-MSH from human MC4R by competitive radioligand binding assay
Melanocortin receptor 4 [10] = target: T2, Melanocortin receptor 4; assay: Agonist activity at human melanocortin receptor 4 expressed in human T-REx-293 cells using high doxycycline assessed as stimulation of intracellular cAMP accumulation incubated for 45 mins by LANCE cAMP assay; type: functional

SMILES | Ratio (Homo sapiens [1]) | Ki [2] [nM] | Ki (Melanocortin receptor 4 [3]) [nM] | IC50 (Melanocortin receptor 5) [nM] | EC50 (Melanocortin receptor 3 [4]) [nM] | EC50 [5] [nM] | EC50 (Melanocortin receptor 4 [6]) [nM] | Ratio (Homo sapiens [7]) | Ki (Melanocortin receptor 3 [8]) [nM] | Ratio (Homo sapiens [9]) | EC50 (Melanocortin receptor 4 [10]) [nM]
CC[C@H](C)[C@@H]1NC(=O)[C@@H]2CCCN2C(=O)[C@H](Cc2c[nH]c3ccccc23)NC(=O)[C@H](CCCNC(=N)N)N(C)C(=O)[C@@H](Cc2ccccc2)NC(=O)[C@H](Cc2c[nH]cn2)NC(=O)[C@H]([C@@H](C)O)NC(=O)[C@@H]2CSSC[C@H](NC1=O)C(=O)N[C@@H](Cc1c[nH]cn1)C(=O)N[C@H](Cc1ccccc1)C(=O)N(C)[C@@H](CCCNC(=N)N)C(=O)N(C)[C@@H](Cc1c[nH]c3ccccc13)C(=O)N[C@@H](CCCNC(=N)N)C(=O)N2 | 30 | 0.0692 | 30.2 | 166 | 1.23 | < 0.0501 | 26.3 | 3000 | 51.3 | 30 | 0.977
CC[C@H](C)[C@@H]1NC(=O)[C@@H]2CCCN2C(=O)[C@H](Cc2c[nH]c3ccccc23)NC(=O)[C@H](CCCNC(=N)N)N(C)C(=O)[C@@H](Cc2ccccc2)NC(=O)[C@H](Cc2c[nH]cn2)NC(=O)[C@H](CC(=O)O)NC(=O)[C@@H]2CSSC[C@H](NC1=O)C(=O)N[C@@H](Cc1c[nH]cn1)C(=O)N[C@H](Cc1ccccc1)C(=O)N(C)[C@@H](CCCNC(=N)N)C(=O)N(C)[C@@H](Cc1c[nH]c3ccccc13)C(=O)N[C@@H](Cc1ccc(O)cc1)C(=O)N2 |  | 0.708 | 355 | 1230 | 18.2 | 0.0646 | 85.1 |  | 891 |  | 4.27
CC[C@H](C)[C@@H]1NC(=O)[C@@H]2CCCN2C(=O)[C@H](Cc2c[nH]c3ccccc23)NC(=O)[C@H](CCCNC(=N)N)N(C)C(=O)[C@@H](Cc2ccccc2)NC(=O)[C@H](Cc2c[nH]cn2)NC(=O)[C@H]([C@@H](C)O)NC(=O)[C@@H]2CSSC[C@H](NC1=O)C(=O)N[C@@H](Cc1c[nH]cn1)C(=O)N[C@H](Cc1ccccc1)C(=O)N[C@@H](CCCNC(=N)N)C(=O)N[C@@H](C)C(=O)N[C@@H](CCCNC(=N)N)C(=O)N2 |  | 1.55 | 50.1 | 1780 | 16.2 | 0.427 | 28.2 |  | 891 |  | 1.2
